“Also recorded” adds a separate entry of the source.
Assays:
[1] = target: T1, hCAR (Homo sapiens, UniProt Q14994, INS274A); assay: hCAR-mediated CYP2B6 luciferase reporter gene activation in transfected HepG2 cells; assay type: cell-based; conditions: for activation of hCAR: concentrations under 1 μm, FIGS. 3E-3J
T1 construct: expressed in transfected cells; host or cells: HepG2
T1 sequence (Q14994 with tags, fused parts or gaps isoform Q14994-2 INS270A): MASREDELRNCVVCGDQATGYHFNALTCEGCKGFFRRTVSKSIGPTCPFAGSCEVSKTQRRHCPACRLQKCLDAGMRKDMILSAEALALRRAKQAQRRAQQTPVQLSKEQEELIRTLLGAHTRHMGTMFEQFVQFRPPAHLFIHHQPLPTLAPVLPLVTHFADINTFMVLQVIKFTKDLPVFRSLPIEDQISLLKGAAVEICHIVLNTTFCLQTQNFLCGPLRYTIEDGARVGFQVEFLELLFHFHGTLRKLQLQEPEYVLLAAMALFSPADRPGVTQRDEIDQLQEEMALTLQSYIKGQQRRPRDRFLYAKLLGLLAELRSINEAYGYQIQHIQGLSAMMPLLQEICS
T1 sequence (P19793 1-462 partner): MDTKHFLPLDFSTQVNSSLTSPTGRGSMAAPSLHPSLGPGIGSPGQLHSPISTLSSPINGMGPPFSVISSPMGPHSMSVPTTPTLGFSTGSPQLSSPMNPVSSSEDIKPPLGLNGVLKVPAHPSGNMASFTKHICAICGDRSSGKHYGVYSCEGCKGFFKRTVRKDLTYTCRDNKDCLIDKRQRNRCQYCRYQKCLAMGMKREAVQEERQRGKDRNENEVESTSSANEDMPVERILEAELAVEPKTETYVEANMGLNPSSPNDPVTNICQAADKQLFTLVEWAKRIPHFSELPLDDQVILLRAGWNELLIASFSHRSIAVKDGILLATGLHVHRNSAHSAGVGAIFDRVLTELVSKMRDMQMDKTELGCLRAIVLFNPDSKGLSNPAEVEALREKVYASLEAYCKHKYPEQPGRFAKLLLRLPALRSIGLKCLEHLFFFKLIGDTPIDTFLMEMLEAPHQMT
Description: (§1) Using CITCO as a model compound, the biological activity of CITCO has been evaluated for its selective activation of hCAR vs. hPXR in luciferase reporter assays, and its effects on CYP2B6 expression at both mRNA and protein levels in cultured human primary hepatocytes (See FIGS. 5A-B).
HepG2 cells were transfected with hCAR1+A expression plasmid and CYP2B6-2.2k firely luciferase reporter construct. Transfected cells were treated with vehicle control (0.1% DMSO), CITCO and DL5016 at indicated concentrations for 24 h, CYP2B6 reported activities were normalized as folds over vehicle control and are expressed as means±SD (n=3). * p<0.05; ***, p<0.001. The results for the effects of DL 5016 compared with CITCO on hCAR-mediated CYP2B6 reported gene activation are shown in FIG. 2.

[2] = target: T2, hPXR (Homo sapiens, UniProt O75469); assay: hPXR luciferase reporter assay; assay type: cell-based; conditions: concentrations under 1 μm; FIGS. 3E-3J
T2 sequence (O75469 1-434): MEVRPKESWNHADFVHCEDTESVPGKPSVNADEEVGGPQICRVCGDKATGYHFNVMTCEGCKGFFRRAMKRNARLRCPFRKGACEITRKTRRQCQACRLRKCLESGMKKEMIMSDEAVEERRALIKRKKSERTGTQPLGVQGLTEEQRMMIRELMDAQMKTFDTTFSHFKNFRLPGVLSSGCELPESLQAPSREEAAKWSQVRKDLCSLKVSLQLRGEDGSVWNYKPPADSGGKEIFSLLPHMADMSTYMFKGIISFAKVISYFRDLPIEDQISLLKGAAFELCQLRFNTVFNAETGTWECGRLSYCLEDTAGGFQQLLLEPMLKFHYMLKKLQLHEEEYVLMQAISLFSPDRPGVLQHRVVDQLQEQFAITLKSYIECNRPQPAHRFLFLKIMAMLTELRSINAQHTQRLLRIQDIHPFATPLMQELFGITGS
Description: as §1

[3] = test system: CYP2B6; assay: Induction of CYP2B6 vs CYP3A4 mRNA (RT-PCR) and protein (Western blot) in human primary hepatocytes; assay type: cell-based; conditions: for hCAR activation with preferred expression of CYP2B6 protein: FIGS. 3B-3D
Description: HPHs were obtained from Bioreclamation, IVT. Hepatocytes with viability over 90% were seeded at 1.5×10^6 or 7.5×10^5 cells per well in 6- or 12-well collagen-coated plates. After 4 hours of attachment, cells were overlaid with Matrigel (0.25 mg/mL) in serum-free Williams E medium to form the sandwich culture. Following incubation for 36 hours, HPH were treated with DMSO (0.1%) or hCAR activator (i.e. CITCO or DL 5016) (1 mmol/L) for 24 or 72 hours for mRNA and protein detection, respectively. In separate experiments, wild-type (WT) and CAR-knockout (KO) HepaRG cells obtained from Sigma-Aldrich were cultured in 6- or 12-well collagen-coated plates. Cells were further treated with DMSO or hCAR activator.
Total RNA from HPH and lymphoma cells was isolated with TRizol Reagent (Life Technologies) and reverse transcribed using a High Capacity cDNA Archive kit (Applied Biosystems) following the manufacturers' instructions. mRNA expression of CYP2B6, CYP3A4, was normalized against that of GAPDH. Real-time PCR assays were performed in 96-well optical plates on a StepOnePlus Real-Time PCR System with SYBR Green PCR Master Mix (Applied Biosystems). The primer sequences used for real-time PCR analyses included: CYP2B6: 50-[…]-30 and 50-CCTTCACCAAGACAAATC-CGC-30; CYP3A4: 50-[…]-30 and 50[…]-30. Fold induction of genes over control was determined as 2DDCt, where DCt is representative of the cycle threshold number difference between the target gene and GAPDH and DDCt represents the relative change in the intergroup variations.
(§2) Homogenate proteins from treated HPH, H9c2 or HepaRG cells were resolved on NuPAGE Novex Bis-Tris 4% to 12% gels (Life Technologies) and electrophoretically transferred onto immobilon-P polyvinylidene difluoride membranes. Membranes were incubated with specific antibodies against human CAR (Perseus Proteomics), cleaved caspase-3 (Cell Signaling Technology), or g-H2AX (Millipore), diluted 1:1,000, 1:1,000, and 1:400, respectively. b-Actin was used to normalize protein loading. Following incubation with horseradish peroxidase goat antimouse or anti-rabbit IgG antibody, membranes were developed using SuperSignal West Pico Chemiluminescent Substrate (Thermo Scientific). Western blot signals were quantified by densitometry using ImageJ software from the National Institutes of Health.
The human primary hepatocytes from human donor were treated with vehicle control (0.1% DMSO) or DL5016 at a concentration ranging from 0.1 μM to 1 μM for 24 h and 72 h. The expression mRNA for CYP2B6 and CYP3A4 and CYP2B6 and CYP3A4 protein were analyzed at the time point of 24 h and 72 h respectively.

[4] = test system: SU-DHL-4 cells; assay: Hepatocyte/lymphoma co-culture with CHOP: cancer cell death, viability, caspase-3; assay type: cell-based, human; conditions: hepatocyte/lymphoma co-culture, added to CHOP, FIGS. 10B-C
Description: HPH were cultured in collagen-coated 12-well plates and pretreated with vehicle control (0.1% DMSO) or hCAR activator (1 mmol/L) for 24 hours. The wells were then separated with […] polycarbonate membrane inserts (Sigma-Aldrich). A total of 0.5×10^6 SU-DHL-4 cells suspended in supplemented Williams' Medium E were transferred into the insert chamber with a final volume of 2 mL/well. In separate coculture experiments, HPH were replaced with either WT or CAR-KO HepaRG cells. The cocultures were exposed to designated concentrations of the chemotherapy drugs in CHOP in the presence or absence of hCAR activator for various time intervals, as indicated.
as §2
HPHs and H9c2 rat cardiomyocytes were seeded at 7.5×10^4 cells per well in 96-well plates. HPH were cultured for 24 hours before treatment with hCAR activator (1 mmol/L) or vehicle control (0.1% DMSO), followed by treatment with the chemotherapy drugs included in CHOP at a range of concentrations. Culture medium containing CHOP drugs and metabolites was exchanged between the cell types at pre-determined time points. A typical 3-[4,5-dimethylthiazol-2-yl]-2,5 diphenyl tetrazolium bromide (MTT) assay was carried out as described previously (21). Cell viability was expressed as the percentage of vehicle control (0.1% DMSO). Cocultured cells were assembled and treated as described above. The viability of the SU-DHL-4 cells was determined at selected time points with a Cellometer Auto T4 (Nexcelom Biosciences) using trypan blue exclusion.

[5] = Aqueous solubility; assay type: physicochemical

SMILES	hCAR activation with preferred expression of CYP2B6 protein [3]	further results
Clc1ccc(-c2nc3sccn3c2/C=N/CCc2ccc(Cl)c(Cl)c2)cc1 [DL4059, (E)-1-(6-(4-chlorophenyl)imidazo[2,1-b]thiazol-5-yl)-N-(3,4-dichlorophenethyl)methanimine]	activate hCAR resulted preferred expression of CYP2B6 protein	activation of hCAR [1]: low activity; activation of hPXR [2]: low activity
Cl.Clc1ccc(-c2nc3sccn3c2CNCCc2ccc(Cl)c(Cl)c2)cc1 [DL4072, N-((6-(4-chlorophenyl)imidazo[2,1-b]thiazol-5-yl)methyl)-2-(3,4-dichlorophenyl)ethan-l-amine hydrochloride]	activate hCAR resulted preferred expression of CYP2B6 protein	activation of hCAR [1]: activated hCAR; activation of hPXR [2]: not hPXR
Clc1ccc(-c2nc3sccn3c2CNCCc2cccc(Cl)c2)cc1 [DL4094, 2-(3-chlorophenyl)-N-((6-(4-chlorophenyl)imidazo[2,1-b]thiazol-5-yl)methyl)ethan-1-amine]	activate hCAR resulted preferred expression of CYP2B6 protein	–
Clc1ccc(CCNCc2c(-c3ccc(Cl)cc3)nc3sccn23)cc1 [DL4095, 2-(4-chlorophenyl)-N-((6-(4-chlorophenyl)imidazo[2,1-b]thiazol-5-yl)methyl)ethan-1-amine]	activate hCAR resulted preferred expression of CYP2B6 protein	–
Clc1ccc(-c2nc3sccn3c2CNCCc2ccc(Cl)c(Cl)c2)cc1 [DL4097, N-((6-(4-chlorophenyl)imidazo[2,1-b]thiazol-5-yl)methyl)-2-(3,4-dichlorophenyl)ethan-1-amine]	activate hCAR resulted preferred expression of CYP2B6 protein	–
FC(F)(F)c1ccc(CCNCc2c(-c3ccc(Cl)cc3)nc3sccn23)cc1Cl [DL4103, 2-(3-chloro-4-(trifluoromethyl)phenyl)-N-((6-(4-chlorophenyl)imidazo[2,1-b]thiazol-5-yl)methyl)ethan-1-amine]	activate hCAR resulted preferred expression of CYP2B6 protein	–
Clc1ccc(-c2nc3sccn3c2CNCCc2cccc(Br)c2)cc1 [DL4104, 2-(3-bromophenyl)-N-((6-(4-chlorophenyl)imidazo[2,1-b]thiazol-5-yl)methyl)ethan-1-amine]	activate hCAR resulted preferred expression of CYP2B6 protein	–
c1ccc2c(c1)CC(NCc1c(-c3ccc4ccccc4c3)nc3occn13)C2 [DL5016, N-((6-(naphthalen-2-yl)imidazo[2,1-b]oxazol-5-yl)methyl)-2,3-dihydro-1H-inden-2-amine]	–	hCAR activity (CYP2B6 reporter gene activation) compared with CITCO ([1]; HepG2 cells, hCAR1+A plasmid, CYP2B6-2.2k luciferase reporter, 24 h, FIG. 2): higher hCAR-inducing activity than CITCO; also recorded: more effective than CITCO; induction of CYP2B6 over CYP3A4 at mRNA and protein levels ([3]; human primary hepatocytes, 0.1-1 μM, 24 h (mRNA) and 72 h (protein), FIG. 3A): potent and selective induction of CYP2B6 over CYP3A4; effect on CHOP anticancer activity (cancer cell death) [4]: potentiates the beneficial effects of CHOP in causing cancer cell death; also recorded: clearly enhanced the regimen's anticancer activity; effect on CHOP anticancer activity (cancer cell death) ([4]; listed as DL 5016): potentiate the beneficial effects of CHOP in causing cancer cell death; aqueous solubility compared with CITCO [5]: improved aqueous solubility
Clc1ccc(-c2nc3sccn3c2CNCCc2ccc(Br)cc2)cc1 [DL 4100, 2-(4-bromophenyl)-N-((6-(4-chlorophenyl)imidazo[2,1-b]thiazol-5-yl)methyl)ethan-1-amine]	activate hCAR resulted preferred expression of CYP2B6 protein	–
Clc1ccc(-c2nc3sccn3c2CNCCc2ccc(Cl)c(Br)c2)cc1 [DL 4102, 2-(3-bromo-4-chlorophenyl)-N-((6-(4-chlorophenyl)imidazo[2,1-b]thiazol-5-yl)methyl)ethan-1-amine]	activate hCAR resulted preferred expression of CYP2B6 protein	–
